Patent US20240058318A1, “DEGRADING PKCB1 TO TREAT CANCER” (Mayo Foundation for Medical Education and Research, priority 2020, published 2024)

Experiments:
Assay type in all cases: cell-based
BT549 cells = assay: Crystal violet (CV) proliferation assay, BT549; settings: BT549 (PKCß1 high, Rb negative), 2000 cells
Description: (§1) Cell proliferation rates were determined using crystal violet assays. […] Cells were fixed with 25% glutaraldehyde for 10 minutes with shaking, washed 5 times with distilled water, stained with a 1% crystal violet solution (solubilized in 25% methanol) for 10 minutes, washed again 5 times and allowed to dry. De-staining was performed using […] sodium citrate in 50% ethanol followed by quantification using a 96 well spectrophotometer set at an absorbance of 550 nm.

MDAMB436 cells = assay: Crystal violet (CV) proliferation assay, MDAMB436; settings: MDAMB436 (PKCß1 low, Rb negative), 2000 cells
Description: as §1

MDAMB231 cells = assay: Crystal violet (CV) proliferation assay, MDAMB231; settings: MDAMB231 (PKCß1 high, Rb positive), 2000 cells
Description: as §1

PKCβ1 = target: T1, PKCβ1 (Homo sapiens, UniProt P05771); assay: Western blot, PKCβ1 expression in MCF7AC1 cells; settings: 1 μM, within 72 hours, drugs replenished every 24 hours
T1 construct: western blots showing expression of PKCβ1 in MCF7AC1 cells treated with 1 μM concentration of the ENDX-PROTACs or ENDX; endogenous in cells; host or cells: MCF7AC1 (ER+ breast cancer cells)
Description: For western blotting analysis, cells were treated with vehicle (DMSO) or 1 μM of the indicated ENDX-PROTAC's or parent drug ENDX for 24, 48 and 72 hours with the drugs replenished every 24 hours. 25 μg of protein lysates were run on 10% Bis-Tris XT Criterion precast SDS-PAGE gels and transferred on to PVDF membrane. Following blocking with TB ST-5% milk, the membranes were probed with primary antibodies (1:500 — 1:2000 dilutions) for PKCβ1 (Abcam #136917), ERα (SC #8002), E2F1 (SC #251) and Actin (CS#8457) in TBST-5% BSA and secondary antibodies (1:2000 dilution) in TBST-5% milk. Membranes were developed using chemiluminescent WestPico or WestFemto detection solutions on the Li-Cor Imaging system.

[1] = tested on: Rb-proficient (MDAMB231) and Rb-deficient (BT549 and MDAMB436) TNBC cells; assay: CV proliferation assay, TNBC cells (statements across lines); settings: MDAMB231 and BT549 cells (FIG. 4A and TABLE 1)
Description: (§2) Cell proliferation rates were determined using crystal violet assays. One thousand cells per well were plated in 96 well tissue culture plates and treated the following day with a bifunctional compound or control for 7 days in replicates of 8. Cells were fixed with 25% glutaraldehyde for 10 minutes with shaking, washed 5 times with distilled water, stained with a 1% crystal violet solution (solubilized in 25% methanol) for 10 minutes, washed again 5 times and allowed to dry. De-staining was performed using […] sodium citrate in 50% ethanol followed by quantification using a 96 well spectrophotometer set at an absorbance of 550 nm.
as §2, with “using CV” for “using crystal violet”, “assays. Two” for “assays. One”, “thousand (2000) or 4000” for “thousand”, “for 6” for “for 7”, “of 6.” for “of 8.”

T1 sequence (P05771 whole entry): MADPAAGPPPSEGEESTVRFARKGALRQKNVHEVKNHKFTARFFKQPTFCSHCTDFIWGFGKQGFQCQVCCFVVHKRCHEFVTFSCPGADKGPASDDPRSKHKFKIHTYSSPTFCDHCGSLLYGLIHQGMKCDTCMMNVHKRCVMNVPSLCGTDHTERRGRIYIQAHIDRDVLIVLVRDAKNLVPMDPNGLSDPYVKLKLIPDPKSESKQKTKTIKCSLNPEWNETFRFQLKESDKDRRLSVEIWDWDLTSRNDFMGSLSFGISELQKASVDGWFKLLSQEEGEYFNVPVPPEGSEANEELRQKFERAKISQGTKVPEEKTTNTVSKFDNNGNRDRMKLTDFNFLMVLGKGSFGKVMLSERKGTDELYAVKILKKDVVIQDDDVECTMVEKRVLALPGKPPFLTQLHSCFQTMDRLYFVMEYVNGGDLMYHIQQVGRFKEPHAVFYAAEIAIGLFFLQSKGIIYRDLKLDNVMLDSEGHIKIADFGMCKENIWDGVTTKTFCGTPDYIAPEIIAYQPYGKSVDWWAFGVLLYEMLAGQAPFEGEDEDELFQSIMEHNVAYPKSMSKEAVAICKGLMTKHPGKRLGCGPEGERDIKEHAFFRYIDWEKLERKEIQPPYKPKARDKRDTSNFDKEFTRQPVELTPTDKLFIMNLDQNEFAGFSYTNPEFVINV

| SMILES | IC50 (BT549 cells) | IC50 (MDAMB436 cells) | IC50 (MDAMB231 cells) | PKCβ1 polypeptide degradation (PKCβ1) | induction of apoptosis [1] | IC50 (result in words) (BT549 cells) | IC50 (result in words) (MDAMB231 cells) | IC50 (result in words) (MDAMB436 cells) |
| --- | --- | --- | --- | --- | --- | --- | --- | --- |
| CC/C(=C(\c1ccc(O)cc1)c1ccc(OCCN(C)C(=O)CCOCCNC(=O)c2ccc3c(c2)CN([C@H]2CCC(=O)NC2=O)C3=O)cc1)c1ccccc1 [TC-Pr-005] | > 10000 nM | 100 to 1000 nM | > 10000 nM | – | – | – | – | – |
| CC/C(=C(\c1ccc(O)cc1)c1ccc(OCCN(C)C(=O)CCOCCNC(=O)Cc2ccc3c(c2)CN([C@H]2CCC(=O)NC2=O)C3=O)cc1)c1ccccc1 [TC-Pr-008] | 225 nM | 74 nM | 131 nM | rapidly degraded PKCβ1 polypeptides | induced apoptosis | – | – | – |
| CC/C(=C(\c1ccc(O)cc1)c1ccc(OCCN(C)C(=O)COCCNC(=O)c2ccc3c(c2)CN([C@H]2CCC(=O)NC2=O)C3=O)cc1)c1ccccc1 [TC-Pr-004] | – | 10000 nM | – | – | – | No major killing, | No major killing | – |
| CC/C(=C(\c1ccc(O)cc1)c1ccc(OCCN(C)C(=O)COCCNC(=O)c2cccc3c2CN([C@H]2CCC(=O)NC2=O)C3=O)cc1)c1ccccc1 [TC-Pr-001] | – | 10000 nM | – | – | – | No major killing | No major killing | – |
| CC/C(=C(\c1ccc(O)cc1)c1ccc(OCCN(C)C(=O)CCOCCNC(=O)c2cccc3c2CN([C@H]2CCC(=O)NC2=O)C3=O)cc1)c1ccccc1 [TC-Pr-002] | – | – | – | – | – | No major killing | No major killing | No major killing |
